Source: PMC10892093 (Pharmaceutics, 2024)
Read-outs that look alike come from different tables or passages of the source.

Experiments:
[1] = system: human kidney microsomes (HKM); test: Inhibition of R- and S-oxazepam glucuronidation in human kidney microsomes
Description: (§1) A Waters Corp BEH C18 Acquity UPLC column (1.7 µM, 2.1 × 100 mm) was used at a constant temperature of 40 °C for chromatographic separation. An elution gradient was used for 6.5 min with mobile phases A (5 mM ammonium formate) and B (100% methanol) under the following conditions: 90% A for 0.5 min, followed by a linear gradient for 3 min to 60% A, 1 min at 5% A, and re-equilibration for 1 min at 90% A.
(§2) The reaction was initiated by the addition of 4 mM UDPGA as the cofactor and incubated for 2 h at 37 °C. The reaction was terminated by adding 30 µL of an ice-cold stop solution (acetonitrile/methanol; 1:1). The reaction mixtures were centrifuged at 17,000× g for 30 min at 4 °C, and the supernatant was transferred to UPLC sample glass vial for analysis using UPLC–MS/MS (described above). […] As a positive control for inhibition assays, ketoconazole (10 μM and 100 µM) was used as a potential inhibitor of the UGTs 1A9, 2B7, and 2B15. Reactions containing only the cannabinoid vehicle (3% methanol) and without any inhibitor (cannabinoids) were used as a baseline reaction for 100% enzyme activity, while a reaction without UDPGA was used as a negative control. All experiments were performed in three independent experiments.
(§3) Determination of IC50 and Ki Values. […] The nonspecific binding constants (fu,inc) for cannabinoids in HEK293 microsomes, HLM, and HKM were previously determined and used to calculate the inhibition by unbound (‘free’) cannabinoid in each reaction. A nonlinear regression analysis and the following equation were used to calculate the IC50 values:(1) y = Bottom +Top − Bottom / 1 + 10^x − LogIC50A where ‘Bottom’ is the maximum observed inhibition (lowest percent activity) and ‘Top’ is the minimum observed inhibition (highest percent activity) for a given cannabinoid.

[2] = system: human liver microsomes (HLM); test: Inhibition of R- and S-oxazepam glucuronidation in human liver microsomes
Description: as §1, §2, §3
(§4) The inhibition constant (Ki) was generated from the in vitro IC50 values assuming competitive inhibition (based on the Cheng–Prusoff equation; [49]). Considering that there have been no reports of the irreversible inhibition (e.g., mechanism-based inhibition) of UGTs, competitive inhibition was assumed as the worst-case scenario (highest inhibition) among all feasible types of reversible inhibitions. The substrate concentration used in the incubations was below the reported Km; therefore, the Ki values were predicted using Equation (2):(2) Ki=IC50/S/Km+1 where Km is Michaelis–Menten constant for the substrate, S is the substrate concentration, and IC50 is half-maximal inhibitory concentration.

[3] = cited from earlier work
[4] = cited from earlier work; remark: listed apart in the source
[5] = system: UGTs (R-oxazepam glucuronidation in HKM); test: Inhibition of R- and S-oxazepam glucuronidation in human kidney microsomes; details: human, human kidney microsomes
Description: as §1, §2, §3

[6] = system: UGTs (S-oxazepam glucuronidation in HKM); test: as above; details: human, human kidney microsomes
Description: as §1, §2, §3

[7] = system: UGTs (S-oxazepam glucuronidation in HLM); test: Inhibition of R- and S-oxazepam glucuronidation in human liver microsomes; details: human, human liver microsomes
Description: as §1, §2, §3, §4

[8] = system: UGTs (R-oxazepam glucuronidation in HLM); test: as above; details: human, human liver microsomes
Description: as §1, §2, §3, §4

[9] = read-out: IC50, R-Oxazepam Glucuronide
[10] = read-out: IC50, S-Oxazepam Glucuronide
[11] = read-out: IC50,u, R-Oxazepam Glucuronide, IC50 corrected with fu,inc
[12] = read-out: IC50,u, S-Oxazepam Glucuronide, IC50 corrected with fu,inc
[13] = read-out: Ki, R-Oxazepam Glucuronide, generated from IC50 assuming competitive inhibition
[14] = read-out: Ki, S-Oxazepam Glucuronide, generated from IC50 assuming competitive inhibition
[15] = read-out: Ki,u, R-Oxazepam Glucuronide, Ki corrected with fu,inc
[16] = read-out: Ki,u, S-Oxazepam Glucuronide, Ki corrected with fu,inc
[17] = pH 7.4, IC50, R-Oxazepam Glucuronide
[18] = pH 7.4, IC50,u, R-Oxazepam Glucuronide, IC50 corrected with fu,inc
[19] = pH 7.4, IC50, S-Oxazepam Glucuronide
[20] = pH 7.4, IC50,u, S-Oxazepam Glucuronide, IC50 corrected with fu,inc

Molecule | IC50 [1, 9] [µM] | IC50 [1, 10] [µM] | IC50 [1, 12] [µM] | IC50 [2, 9] [µM] | IC50 [2, 10] [µM] | IC50 [2, 11] [µM] | Ki [2, 13] [µM] | Ki [2, 14] [µM] | Ki [2, 15] [µM] | Ki [2, 16] [µM] | Cmax ([3]; THC dose 20 mg, oral) [nM] | Cmax ([3]; THC dose 25 mg, inhalation) [nM] | Cmax ([3]; THC dose 70 mg, inhalation) [nM] | Cmax ([3]; THC dose 100 mg, inhalation) [nM] | Cmax ([3]; THC dose 130 mg, oral) [nM] | Cmax ([3]; THC dose 160 mg, oral) [nM] | Cmax ([3]; after smoking) [nM] | Cmax ([3]; oral ingestion of 50 mg THC) [nM] | also measured
11-hydroxy-Δ^9-tetrahydrocannabinol [11-OH-THC] | 18 ± 4.3 | 19 ± 2 | 1.8 ± 0.19 | 18 ± 5 | 41 ± 25 | 1.7 ± 0.47 | 18 ± 4.9 | 34 ± 21 | 1.7 ± 0.46 | 3.2 ± 2 | 15 | 12 | 32 | 46 | 100 | 120 | 90 | 160 | IC50 [1, 11]: 1.7 ± 0.4 µM; IC50 [2, 12]: 3.9 ± 2.4 µM
C=C(C)[C@@H]1CCC(C)=C[C@H]1c1c(O)cc(CCCCC)cc1O [CBD, cannabidiol] |  |  |  |  |  |  | 16 ± 7.4 | 72 ± 32 | 0.82 ± 0.38 | 3.7 ± 1.6 |  |  |  |  |  |  |  |  | Increase in N-desmethylclobazam concentration ([4]; coadministration of clobazam, stiripentol, and CBD 750 mg twice daily): 3.4 fold; Increase in the level of 1-hydroxymidazolam ([4]; oral CBD 750 mg twice daily with midazolam): 12%; IC50 at 2 h [5, 17]: 5.9 ± 1 µM; IC50 at 2 h [5, 18]: 0.36 ± 0.062 µM; IC50 at 2 h [6, 19]: 16 ± 7.7 µM; IC50 at 2 h [6, 20]: 0.98 ± 0.48 µM; IC50 at 2 h [7, 19]: 87 ± 46 µM; IC50 at 2 h [7, 20]: 4.5 ± 2.4 µM; IC50 at 2 h [8, 17]: 16 ± 7.7 µM; IC50 at 2 h [8, 18]: 0.84 ± 0.39 µM; Cmax ([3]; 1500 mg dose of CBD following a high-fat diet): 4400 nM; Cmax ([3]; CBD 2 mg, inhalation): 6.4 nM; Cmax ([3]; CBD 19 mg, inhalation): 350 nM; Cmax ([3]; CBD 70 mg, oral): 89 nM; Cmax ([3]; CBD 700 mg, oral): 890 nM; Cmax ([3]; CBD 2000 mg, oral): 2500 nM
CCCCCc1cc(O)c2c(c1)OC(C)(C)[C@@H]1CCC(C)=C[C@@H]21 [THC, Δ^9-tetrahydrocannabinol] | 94 ± 26 | > 100 | > 4.8 | 34 ± 16 | > 100 | 1.6 ± 0.77 | 33 ± 15 | > 83 | 1.6 ± 0.74 | > 3.2 | 30 | 250 | 700 | 990 | 200 | 240 | 640 | 530 | Cmax ([3]; smoking cannabis cigarettes with 3.55% THC): 515 nM
